Laboratory results: patent US4581346A, “Macrolide derivatives” (Eli Lilly and Company, priority 1984, dated 1986)
Converted amounts (≈) assume the structure as drawn.

Assays:
Assay in all cases: Standard agar-dilution assay, MIC
Type in all cases: cell-based
[1] = test system: Staphylococcus epidermidis EPI1
Description: (§1) The minimal inhibitory concentrations (MIC's) at which the tylosin derivative (formula 1 compound wherein [drawing 11] and R^3 =mycarosyloxy) inhibits certain bacteria are given in Table II. The MIC's in Table II were determined by standard agar-dilution assays.

[2] = test system: Streptococcus pyogenes C203
Description: as §1

Escherichia coli EC14 = test system: Escherichia coli EC14
Description: as §1

[3] = test system: Staphylococcus aureus X1.1
Description: as §1

[4] = test system: Streptococcus Group D 9960; settings: GROUPD9960
Description: as §1

[5] = test system: Haemophilus influenzae 76; settings: Haemophilus influenzae 76, ampicillin-resistant strain
Description: as §1

[6] = test system: Staphylococcus aureus V41; settings: Staphylococcus aureus V41, penicillin-resistant strain
Description: as §1

[7] = test system: Streptococcus pneumoniae Park I
Description: as §1

[8] = test system: Streptococcus Group D X66
Description: as §1

Escherichia coli N10 = test system: Escherichia coli N10
Description: as §1

[9] = test system: Staphylococcus epidermidis EPI2
Description: as §1

[10] = test system: Haemophilus influenzae C.L.; settings: ampicillin-sensitive strain
Description: as §1

[11] = test system: Staphylococcus aureus X400
Description: as §1

[12] = test system: Staphylococcus aureus S13E
Description: as §1

Escherichia coli TEM = test system: Escherichia coli TEM
Description: as §1

SMILES: CCC1OC(=O)CC(O)C(C)C(OC2OC(C)C(OC3CC(C)(O)C(O)C(C)O3)C(N(C)C)C2O)C2CC(O)C(C)(C2)C(=O)C=CC(C)=CC1COC1OC(C)C(O)C(OC)C1OC (stereo not drawn) [8,20-Cyclo-Tylosin, 8,20-Cyclo-tylosin]
- MIC [1]: 1 µg/mL (≈ 1.09 µM)
- MIC [2]: 1 µg/mL (≈ 1.09 µM)
- MIC (Escherichia coli EC14): > 128 µg/mL
- MIC [3]: 1 µg/mL (≈ 1.09 µM)
- MIC [4]: 32 µg/mL (≈ 34.9 µM)
- MIC [5]: 128 µg/mL (≈ 140 µM)
- MIC [6]: 2 µg/mL (≈ 2.18 µM)
- MIC [7]: 2 µg/mL (≈ 2.18 µM)
- MIC [8]: 32 µg/mL (≈ 34.9 µM)
- MIC (Escherichia coli N10): > 128 µg/mL
- MIC [9]: 0.5 µg/mL (≈ 0.546 µM)
- MIC [10]: 128 µg/mL (≈ 140 µM)
- MIC [11]: 2 µg/mL (≈ 2.18 µM)
- MIC [12]: 2 µg/mL (≈ 2.18 µM)
- MIC (Escherichia coli TEM): > 128 µg/mL
